This assay in a line: TR-FRET Assay: To identify novel antagonists of RORgammaT, an assay was developed which employs the interaction of RORgammaT with its co-activator peptide SRC1_2. This peptide mimics the recruitment of co-activators to RORgammaT through its interaction with the LXXLL (SEQ ID NO:1) (e.g., NR box) motifs (Xie et al., J. Immunol. 175: 3800-09, 2005; Kurebayashi et al., Biochem. Biophys. Res. Commun. 315: 919-27, 2004; Jin et al., Mol. Endocrinology 24:923-29, 2010). The RORγ-Ligand Binding Domain TR-FRET Assay was run according to the following protocol.HIS-tagged RORγ-LBD protein was expressed in SF9 cells using a baculovirus expression system. The RORγ-LBD protein was purified by […] chromatography. Separately, SF9 cells not expressing any recombinant protein were lysed and the lysate was added to the purified RORγ-LBD at 0.25 ul lysate (from 10,000 SF9 cells)/nM purified protein. The mixture was then diluted in assay buffer (50 mM Tris pH 7.0, 50 mM KCl, 1 mM EDTA, 0.1 mM DTT) to obtain RORγ-LBD final concentration of 3 nM in 384-well assay plate. Compounds to be tested were injected to the assay plate using Acoustic Droplet Ejection technology by Echo 550 liquid handler (Labcyte, Calif.). A stock of biotinylated-LXXLL peptide from coactivator SRC1 (Biotin-[…]) (SEQ ID NO:2) was prepared in assay buffer and added to each well (100 nM final concentration). […]. In general terms: In TR-FRET formats the signal depends on donor and acceptor labels being close together.

`CC1(C)CC(c2nn(C(=O)c3c(Cl)cccc3C(F)(F)F)c3cccc(F)c23)=CC[C@H]1C(=O)O`: the half-inhibitory concentration (IC50) amounted to 343 nM.
For `CC1(C(=O)O)CC=C(c2nn(C(=O)c3c(Cl)cccc3C(F)(F)F)c3cccc(F)c23)CC1` (configuration not stated) the value was 21 nM.

One may read the IC50 as the point on the concentration scale where inhibition reaches its midpoint.

The values above are taken from ChEMBL document CHEMBL5725235, “3-cyclohexenyl and cyclohexyl substituted indole and indazole compounds as RORgammaT inhibitors and uses thereof” (2016).
